What was measured:
[1] = stated as known; cited from earlier work
[2] = Proteolytic action on target protein by hydroxyl radical (FIG. 2A); assay type: biochemical; conditions: prevention of degradation of target protein
From the text: FIG. 2A is a hydroxyl radical, in which 1 is untreated target protein, 2 is no antioxidant added, 3 is IMDP added, 4 is vitamin C added, 5 is ferulic acid added, 6 is IMDP+vitamin C+ferulic acid added; and […]

[3] = stated as known; cited from earlier work; remark: listed apart in the source
[4] = Proteolytic action on target protein by peroxynitrite radical (FIG. 2B); assay type: biochemical; conditions: prevention of degradation of target protein

CC1=C(/C=C/C(C)=C/C=C/C(C)=C/C=C/C=C(C)/C=C/C=C(C)/C=C/C2=C(C)C(=O)[C@@H](O)CC2(C)C)C(C)(C)C[C@H](O)C1=O [astaxanthin]
antioxidant activity against hydroxyl radicals (known) [1]: strong

COc1cc(/C=C/C(=O)O)ccc1O [ferulic acid]
antioxidant activity against hydroxyl radicals [2]: strong

O=C1O[C@H]([C@@H](O)CO)C(O)=C1O [vitamin C]
antioxidant activity against peroxynitrite radicals (known) [3]: strong | antioxidant activity against peroxynitrite radicals [4]: strong

vitamin E
antioxidant activity against hydroxyl radicals (known) [1]: strong

— patent publication US20230364180A1, “COMPOSITION FOR IMPROVING MILD COGNITIVE IMPAIRMENT AND METHOD FOR IMPROVING MILD COGNITIVE IMPAIRMENT” (TOKAI BUSSAN CO., LTD., priority 2019, published 2023)
